Assay results taken from patent publication US9598446B2, “Amino compounds for treatment of complement mediated disorders” (priority 2014, dated 2017).
pIC50: −log10 of the molar value.

Molecular target: Human factor D (Homo sapiens (Human), UniProt P00746)
Assay: Human Factor D Assay
Format: biochemical
Conditions: not given

Human factor D, sequence (P00746 26-253): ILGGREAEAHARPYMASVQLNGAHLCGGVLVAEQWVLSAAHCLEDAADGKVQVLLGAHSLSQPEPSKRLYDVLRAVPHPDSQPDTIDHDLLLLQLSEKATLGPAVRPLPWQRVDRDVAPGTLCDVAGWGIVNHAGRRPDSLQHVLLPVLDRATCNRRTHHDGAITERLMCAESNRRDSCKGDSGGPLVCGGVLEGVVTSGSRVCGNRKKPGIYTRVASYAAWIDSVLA

`CC(=O)c1cn(CC(=O)N2C[C@H](F)C[C@H]2C(=O)Nc2nnc(-c3ccccc3Cl)s2)c2ccc(Nc3cncnc3)cc12` [Compound 34, (2S,4R)-1-(2-(3-acetyl-5-(pyrimidin-5-ylamino)-1H-indol-1-yl)acetyl)-N-(5-(2-chlorophenyl)-1,3,4-thiadiazol-2-yl)-4-fluoropyrrolidine-2-carboxamide] and `CC(=O)c1cn(CC(=O)N2C[C@H](F)C[C@H]2C(=O)NCc2nc3ccccc3s2)c2ccc(Nc3cncnc3)cc12` [Compound 16, (2S,4R)-1-(2-(3-acetyl-5-(pyrimidin-5-ylamino)-1H-indol-yl)acetyl)-N-(benzo[d]thiazol-2-ylmethyl)-4-fluoropyrrolidine-2-carboxamide] fall in the same range of pIC50: 5.00 to 6.00 for the first, 5.00 to 6.00 for the second.

`COc1cc(C)cc2c1OCCC2NC(=O)[C@@H]1C[C@@H](F)CN1C(=O)Cn1cc(C(C)=O)c2cc(Nc3cncnc3)ccc21` (stereo partly drawn) [Compound 54, (2S,4R)-1-(2-(3-acetyl-5-(pyrimidin-5-ylamino)-1H-indol-1-yl)acetyl)-4-fluoro-N-(8-methoxy-6-methylchroman-4-yl)pyrrolidine-2-carboxamide] and `CNC(=O)[C@@H]1C[C@@H](F)CN1C(=O)Cn1cc(C(C)=O)c2cc(Nc3cncnc3)ccc21` [Compound 20, (2S,4R)-1-(2-(3-acetyl-5-(pyrimidin-5-ylamino)-1H-indol-1-yl)acetyl)-4-fluoro-N-methylpyrrolidine-2-carboxamide] fall in the same range of pIC50: 5.00 to 6.00 for the first, 5.00 to 6.00 for the second.

`CC(=O)c1cn(CC(=O)N2C[C@H](F)C[C@H]2C(=O)Nc2nc(-c3c(C)nc4sccn34)cs2)c2ccc(Nc3cncnc3)cc12` [Compound 49, (2S,4R)-1-(2-(3-acetyl-5-(pyrimidin-5-ylamino)-1H-indol-1-yl)acetyl)-4-fluoro-N-(4-(6-methylimidazo[2,1-b]thiazol-5-yl)thiazol-2-yl)pyrrolidine-2-carboxamide] gave a pIC50 of 5.00 to 6.00.

Same assay, conditions: human factor D 80 nM, substrate Z-L-Lys-SBz1 and DTNB 100 μM each, pH 7.5; read-out: IC50

`CC(=O)c1cn(CC(=O)N2C[C@H](F)C[C@H]2C(=O)Nc2ccc3cn[nH]c3c2)c2ccc(Nc3cncnc3)cc12` [Compound 25, (2S,4R)-1-(2-(3-acetyl-5-(pyrimidin-5-ylamino)-1H-indol-1-yl)acetyl)-4-fluoro-N-(1H-indazol-6-yl)pyrrolidine-2-carboxamide] and `CC(=O)c1cn(CC(=O)N2C[C@H](F)C[C@H]2C(=O)Nc2ccc3ccccc3c2)c2ccc(Nc3cncnc3)cc12` [Compound 46, (2S,4R)-1-(2-(3-acetyl-5-(pyrimidin-5-ylamino)-1H-indol-1-yl)acetyl)-4-fluoro-N-(naphthalen-2-yl)pyrrolidine-2-carboxamide] cannot be ordered by pIC50: over 6.00 for the first, over 6.00 for the second.

`CC(=O)c1cn(CC(=O)N2C[C@H](F)C[C@H]2C(=O)N[C@@H](CO)c2cccc(Cl)c2F)c2ccc(Nc3cncnc3)cc12` [Compound 8, (2S,4R)-1-(2-(3-acetyl-5-(pyrimidin-5-ylamino)-1H-indol-1-yl)acetyl)-N-((R)-1-(3-chloro-2-fluorophenyl)-2-hydroxyethyl)-4-fluoropyrrolidine-2-carboxamide] and `CC(=O)c1cn(CC(=O)N2C[C@H](F)C[C@H]2C(=O)Nc2cccc(Cl)c2C(F)(F)F)c2ccc(Nc3cncnc3)cc12` [Compound 48, (2S,4R)-1-(2-(3-acetyl-5-(pyrimidin-5-ylamino)-1H-indol-1-yl)acetyl)-N-(3-chloro-2-(trifluoromethyl)-phenyl)-4-fluoropyrrolidine-2-carboxamide] cannot be ordered by pIC50: over 6.00 for the first, over 6.00 for the second.

`CC(=O)c1cn(CC(=O)N2C[C@H](F)C[C@H]2C(=O)NC2CCCN(c3cc(C)ccc3F)C2=O)c2ccc(Nc3cncnc3)cc12` (stereo partly drawn) [Compound 63, (2S,4R)-1-(2-(3-acetyl-5-(pyrimidin-5-ylamino)-1H-indol-1-yl)acetyl)-4-fluoro-N-(1-(2-fluoro-5-methylphenyl)-2-oxopiperidin-3-yl)pyrrolidine-2-carboxamide] and `CC(=O)c1cn(CC(=O)N2C[C@H](F)C[C@H]2C(=O)NC2CCN(c3ccn(C)n3)C2=O)c2ccc(Nc3cncnc3)cc12` (stereo partly drawn) [Compound 64, (2S,4R)-1-(2-(3-acetyl-5-(pyrimidin-5-ylamino)-1H-indol-1-yl)acetyl)-4-fluoro-N-(1-(1-methyl-1H-pyrazol-3-yl)-2-oxopyrrolidin-3-yl)pyrrolidine-2-carboxamide] cannot be ordered by pIC50: over 6.00 for the first, over 6.00 for the second.

`CC(=O)c1cn(CC(=O)N2C[C@H](F)C[C@H]2C(=O)Nc2cncc(Br)n2)c2ccc(Nc3cncnc3)cc12` [Compound 47, (2S,4R)-1-(2-(3-acetyl-5-(pyrimidin-5-ylamino)-1H-indol-1-yl)acetyl)-N-(6-bromopyrazin-2-yl)-4-fluoropyrrolidine-2-carboxamide] and `CC(=O)c1cn(CC(=O)N2C[C@H](F)C[C@H]2C(=O)Nc2cccc(O)n2)c2ccc(Nc3cncnc3)cc12` [Compound 68, (2S,4R)-1-(2-(3-acetyl-5-(pyrimidin-5-ylamino)-1H-indol-1-yl)acetyl)-4-fluoro-N-(6-hydroxypyridin-2-yl)pyrrolidine-2-carboxamide] cannot be ordered by pIC50: over 6.00 for the first, over 6.00 for the second.

`CC(=O)c1cn(CC(=O)N2C[C@H](F)C[C@H]2C(=O)NCc2cccnc2)c2ccc(Nc3cncnc3)cc12` [Compound 43, (2S,4R)-1-(2-(3-acetyl-5-(pyrimidin-5-ylamino)-1H-indol-1-yl)acetyl)-4-fluoro-N-(pyridin-3-ylmethyl)pyrrolidine-2-carboxamide] and `CC(=O)c1cn(CC(=O)N2C[C@H](F)C[C@H]2C(=O)NCc2cc(F)cc(Cl)c2)c2ccc(Nc3cncnc3)cc12` [Compound 18, (2S,4R)-1-(2-(3-acetyl-5-(pyrimidin-5-ylamino)-1H-indol-1-yl)acetyl)-N-(3-chloro-5-fluorobenzyl)-4-fluoropyrrolidine-2-carboxamide] cannot be ordered by pIC50: over 6.00 for the first, over 6.00 for the second.

`CC(=O)c1cn(CC(=O)N2C[C@H](F)C[C@H]2C(=O)Nc2nc(-c3ccc4c(c3)CCCC4)cs2)c2ccc(Nc3cncnc3)cc12` [Compound 50, (2S,4R)-1-(2-(3-acetyl-5-(pyrimidin-5-ylamino)-1H-indol-1-yl)acetyl)-4-fluoro-N-(4-(5,6,7,8-tetrahydronaphthalen-2-yl)thiazol-2-yl)pyrrolidine-2-carboxamide] and `CC(=O)c1cn(CC(=O)N2C[C@H](F)C[C@H]2C(=O)Nc2nc(-c3cccc(Cl)c3)ns2)c2ccc(Nc3cncnc3)cc12` [Compound 60, (2S,4R)-1-(2-(3-acetyl-5-(pyrimidin-5-ylamino)-1H-indol-1-yl)acetyl)-N-(3-(3-chlorophenyl)-1,2,4-thiadiazol-5-yl)-4-fluoropyrrolidine-2-carboxamide] cannot be ordered by pIC50: under 5.00 for the first, under 5.00 for the second.

`NC(=O)c1nn(CC(=O)N2C[C@H](F)C[C@H]2C(=O)Nc2cccc(Cl)n2)c2ccc(Nc3cncnc3)cc12` [Compound 12, 1-(2-((2S,4R)-2-(6-chloropyridin-2-ylcarbamoyl)-4-fluoropyrrolidin-1-yl)-2-oxoethyl)-5-(pyrimidin-5-ylamino)-1H-indazole-3-carboxamide] and `CC(=O)c1cn(CC(=O)N2C[C@H](F)C[C@H]2C(=O)Nc2noc(-c3ccccc3Cl)n2)c2ccc(Nc3cncnc3)cc12` [Compound 62, (2S,4R)-1-(2-(3-acetyl-5-(pyrimidin-5-ylamino)-1H-indol-1-yl)acetyl)-N-(5-(2-chlorophenyl)-1,2,4-oxadiazol-3-yl)-4-fluoropyrrolidine-2-carboxamide] cannot be ordered by pIC50: over 6.00 for the first, over 6.00 for the second.

First: CC(=O)c1cn(CC(=O)N2C[C@H](F)C[C@H]2C(=O)NC2CCCN(c3cnn(C)c3)C2)c2ccc(Nc3cncnc3)cc12 (stereo partly drawn) [Compound 42, (2S,4R)-1-(2-(3-acetyl-5-(pyrimidin-5-ylamino)-1H-indol-1-yl)acetyl)-4-fluoro-N-(1-(1-methyl-1H-pyrazol-4-yl)piperidin-3-yl)pyrrolidine-2-carboxamide]
Second: CC(=O)c1cn(CC(=O)N2C[C@H](F)C[C@H]2C(=O)NC2CCCc3nc(-c4ccc(F)cc4)sc32)c2ccc(Nc3cncnc3)cc12 (stereo partly drawn) [Compound 28, (2S,4R)-1-(2-(3-acetyl-5-(pyrimidin-5-ylamino)-1H-indol-1-yl)acetyl)-4-fluoro-N-(2-(4-fluorophenyl)-4,5,6,7-tetrahydrobenzo[d]thiazol-7-yl)pyrrolidine-2-carboxamide]
The pIC50 of the first is higher: over 6.00 for the first, under 5.00 for the second. The first is the more potent here.

`CC(=O)c1cn(CC(=O)N2C[C@H](F)C[C@H]2C(=O)Nc2ccc3[nH]c(C)c(C)c3c2)c2ccc(Nc3cncnc3)cc12` [Compound 38, (2S,4R)-1-(2-(3-acetyl-5-(pyrimidin-5-ylamino)-1H-indol-1-yl)acetyl)-N-(2,3-dimethyl-1H-indol-5-yl)-4-fluoropyrrolidine-2-carboxamide] and `CC(=O)c1cn(CC(=O)N2C[C@H](F)C[C@H]2C(=O)Nc2nc(-c3ccccc3Cl)ns2)c2ccc(Nc3cncnc3)cc12` [Compound 29, (2S,4R)-1-(2-(3-acetyl-5-(pyrimidin-5-ylamino)-1H-indol-1-yl)acetyl)-N-(3-(2-chlorophenyl)-1,2,4-thiadiazol-5-yl)-4-fluoropyrrolidine-2-carboxamide] cannot be ordered by pIC50: over 6.00 for the first, over 6.00 for the second.

`CC(=O)c1cn(CC(=O)N2C[C@H](F)C[C@H]2C(=O)Nc2cccc(-c3ccccc3Cl)c2F)c2ccc(Nc3cncnc3)cc12` [Compound 3, (2S,4R)-1-(2-(3-acetyl-5-(pyrimidin-5-ylamino)-1H-indol-1-yl)acetyl)-N-(2′-chloro-2-fluorobiphenyl-3-yl)-4-fluoropyrrolidine-2-carboxamide] and `CC(=O)c1cn(CC(=O)N2C[C@H](F)C[C@H]2C(=O)Nc2ccc(OCc3ccccc3)cn2)c2ccc(Nc3cncnc3)cc12` [Compound 45, (2S,4R)-1-(2-(3-acetyl-5-(pyrimidin-5-ylamino)-1H-indol-1-yl)acetyl)-N-(5-(benzyloxy)pyridin-2-yl)-4-fluoropyrrolidine-2-carboxamide] cannot be ordered by pIC50: over 6.00 for the first, over 6.00 for the second.

`CC(=O)c1cn(CC(=O)N2C[C@H](F)C[C@H]2C(=O)NCc2cccc(Cl)c2F)c2cc(NS(=O)(=O)C(F)(F)F)ccc12` [Compound 2, (2S,4R)-1-(2-(3-acetyl-6-(trifluoromethylsulfon-amido)-1H-indol-1-yl)acetyl)-N-(3-chloro-2-fluorobenzyl)-4-fluoropyrrolidine-2-carboxamide] was tested, and the pIC50 was over 6.00.
